Patent publication US20220332799A1, “HERV INHIBITORS FOR USE IN TREATING TAUOPATHIES” (Deutsches Zentrum Für Neurodegenerative Erkrankungen E.V. …, priority 2019, published 2022)

Legend:
N2a NM-GFP^sol cells = assay: NM-GFP aggregate induction in recipient cells by EVs from donor clone N2a NM-HA^agg s2E; type: cell-based, mouse; conditions: EVs isolated from donors treated with 10 μM for 3 days; no drug on recipients, 16 h
Protocol: To prepare EV-depleted medium, FCS was ultracentrifuged at 100,000×g for 20 h at 4° C. Medium supplemented with the EV-depleted FCS and antibiotics was subsequently filtered through […] and a 0.1 μM filter-sterilization devices (Millipore). For EV isolation, 2-4×10^6 cells were seeded in T175 flasks in 35 ml EV-depleted medium to reach confluence after 3 days. Cells and cell debris were pelleted by differential centrifugation (300×g, 10 min; 2,000×g, 20 min; 16,000×g, 30 min, 4° C.). The remaining supernatant (conditioned medium) was subjected to ultracentrifugation at 100,000×g for 1 h at 4° C. using rotors Ti45 or SW32Ti (Beckman Coulter). The pellet was rinsed in PBS and spun again using rotor SW55Ti at 100,000×g for 1 h at 4° C.
Recipient cells were cultured on CellCarrier-96 plates or 384 black microplates (PerkinElmer) at appropriate cell numbers for 1 h, and then treated with 5-10 μl of prepared samples (isolated EVs or recombinant NM fibrils). […] On average, a total of 3-4×10^4 cells per well and at least 3 wells per treatment were analyzed.
The treatment of cells with Amprenavir (10 μM; Santa Cruz) and DMSO was performed for 72 h in EV-depleted medium in T175 flasks. Afterwards, the total numbers of viable cells and the viability upon drug treatment were determined using the Vi-VELL™ XR Cell Viability Analyzer (Beckman Coulter). […]

MuERV Env and Gag = type: cell-based, mouse; conditions: s2E P1 donors; Aza 200 nM or Dec 100 nM, then 5 days without drug; vs DMSO
Protocol: To inhibit methyltransferases, s2E P1 donor cells were treated for three days with methyltransferase inhibitors 5-Azacytidine (Aza) 200 nM, Decitabine (Dec) 100 nM or DMSO as solvent control. Subsequently, the cells were cultured in the absence of the drugs for 5 days. Pre-treated donor cells were subsequently cocultured with recipient cells as described above to monitor aggregate induction efficiency in recipient N2a NM-GFP^sol cells. Cell lysates of donor cells were also analyzed for MuERV Env and Gag expression levels by western blot. To increase DNA methylation, the s2E donor clone (P21) was treated with methyl group donors L-methionine (L-M) 80 mM, Betaine (B) 80 mM, Choline chloride (CC) 20 mM or medium control for 6 days. MuERV Env and Gag protein levels were analyzed by western blot. Subsequently, cells were cocultured with recipient cells for 16 h. The percentage of aggregate containing recipient cells was compared to the percentage of aggregate bearing recipients cocultured with solvent-treated donors.
Pre-designed siRNAs against murine XPR1 and mCat-1 genes were used to knock-down genes coding for putative receptors. For transfection, 2-4×10^5 cells/well were seeded on 6 well plates. The next day, 30 nM siRNA or plasmid DNA was transfected using Lipofectamine RNAiMAX or Lipofectamine2000 transfection reagent, respectively, according to the manufacturer's instructions (Thermo Fisher Scientific). After 2 days, transfected cells were harvested for aggregate induction assays and qRT-PCR, western blot analysis.
For Western blot analysis, protein concentrations were measured using the Quick Start™ Bradford Protein assay (Bio-Rad). Proteins were separated on NuPAGE®Novex® 4-12 Bis-Tris Protein Gels (Life Technologies) followed by transfer onto a PVDF membrane (GE Healthcare). Western blot analysis was performed using rat hybridoma anti-MuERV Env mAb83A25; anti-xenotropic MuLV virus antibody ABIN457298 for detecting both Env and Gag (antibodies-online); mouse anti-MuERV Gag ab100970 (Abcam); mouse anti-Alix (1:1000; BD Bioscience); rat anti-HA 3F10 (1:1000; Roche); mouse anti-GAPDH 6C5 (1:5000; Abcam); mouse anti-Hsc/Hsp70 N27F3-4 (1:1000; ENZO); mouse anti-VSV-G A5977 (Sigma); rabbit anti-Tau ab64193 (Abcam); mouse anti-HERV K Env HERM-1811-5 (Amsbio); mouse anti-HERV K Gag HERM-1841-5 (Amsbio). The membrane was incubated with Pierce™ ECL Western Blotting Substrate (Thermo Fisher Scientific) according to the manufacturer's recommendations.

Row | Structure (SMILES) | EV-mediated aggregate induction in recipient cells (N2a NM-GFP^sol cells) | expression of MuERV proteins (MuERV Env and Gag)
1 | CC(C)CN(C[C@@H](O)[C@H](Cc1ccccc1)NC(=O)O[C@H]1CCOC1)S(=O)(=O)c1ccc(N)cc1 [Amprenavir] | basically abolished EV-mediated aggregate induction in recipient cells | –
2 | Nc1ncn([C@H]2C[C@H](O)[C@@H](CO)O2)c(=O)n1 [Decitabine, 5-aza-2′-deoxycytidine] | – | increased expression
